Results on 1 molecule are retold here after ChEMBL document CHEMBL1156458, “chi-Conotoxin and tricyclic antidepressant interactions at the norepinephrine transporter define a new transporter model” (J Biol Chem, 2007).

The target in this assay is Sodium-dependent dopamine transporter (Homo sapiens, UniProt Q01959, F472L). Description: Inhibition of [3H]dopamine uptake at human DAT F472L mutant expressed in african green monkey COS1 cells after 48 hrs. It counts as cell-based, COS-1.
Chain of Sodium-dependent dopamine transporter (Q01959 whole entry F472L): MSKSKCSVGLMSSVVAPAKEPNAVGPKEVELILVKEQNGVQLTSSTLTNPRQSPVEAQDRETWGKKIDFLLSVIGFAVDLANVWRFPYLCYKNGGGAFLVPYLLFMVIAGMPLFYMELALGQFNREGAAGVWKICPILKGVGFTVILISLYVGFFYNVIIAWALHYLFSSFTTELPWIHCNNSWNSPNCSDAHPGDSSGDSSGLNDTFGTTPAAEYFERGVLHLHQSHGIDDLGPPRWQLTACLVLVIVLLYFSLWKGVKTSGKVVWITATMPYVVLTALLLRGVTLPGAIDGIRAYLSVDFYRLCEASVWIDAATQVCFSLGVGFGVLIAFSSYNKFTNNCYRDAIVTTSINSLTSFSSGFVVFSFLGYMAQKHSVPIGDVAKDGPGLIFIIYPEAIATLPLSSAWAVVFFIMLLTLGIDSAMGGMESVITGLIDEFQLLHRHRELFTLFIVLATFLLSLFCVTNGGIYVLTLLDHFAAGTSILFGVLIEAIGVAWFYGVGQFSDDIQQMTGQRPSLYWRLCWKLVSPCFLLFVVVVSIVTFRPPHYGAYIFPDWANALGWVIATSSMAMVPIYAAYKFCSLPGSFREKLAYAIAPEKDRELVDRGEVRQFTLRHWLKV

For the molecule `CC(C)C[C@@H]1NC(=O)[C@H](CCCCN)NC(=O)[C@H](Cc2ccc(O)cc2)NC(=O)CNC(=O)[C@@H]2CSSC[C@H](NC1=O)C(=O)N[C@@H](Cc1cnc[nH]1)C(=O)N1C[C@H](O)C[C@H]1C(=O)N[C@H](C(=O)O)CSSC[C@H](NC(=O)[C@@H](NC(=O)CNC(=O)[C@@H](N)CC(N)=O)C(C)C)C(=O)N2`, the half-inhibitory concentration (IC50) is 200 µM.

One may read the IC50 as the concentration that gives 50% inhibition.
